# Data reported in ChEMBL document CHEMBL6103629 (J Med Chem, 2025).
# The source made the active and inactive calls. The calls are words filed in the database; no cut-off is given here.
# How the values were obtained:
# CWR22R [1] = assay: Antiproliferative activity against human 22Rv1 cells incubated for 120 hrs by Cell-titer Glo luminescent assay; settings: 22Rv1, 120 h
# NCI-H1703 [2] = assay: Antitumor activity against human NCI-H1703 cells xenografted in female Balb/c nude mouse assessed as tumor growth inhibition at 50 mg/kg […] administered as 3 days on and 4 days off schedule for 4 weeks relative to control; assay type: functional; settings: NCI-H1703, 672 h, time 28 day, read-out: TGI
# Homo sapiens = species on record: Homo sapiens; assay: Inhibition of DNA-PK (unknown origin) at 10 uM preincubated for 15 mins and measured after 60 mins by Z-LYTE screening relative to control; settings: time 75.0 min
# [3] = molecular target: Phosphatidylinositol 4-phosphate 3-kinase C2 domain-containing subunit beta (Homo sapiens) (UniProt O00750); assay: Inhibition of PIK3C2B (unknown origin) at 10 uM preincubated for 15 mins and measured after 60 mins by Z-LYTE screening relative to control; settings: time 75.0 min
# CWR22R [4] = assay: Antitumor activity against human 22Rv1 cells xenografted in male Balb/c nude mouse assessed as tumor growth inhibition at 10 to 60 mg/kg QD, po measured every 3 days for 18 days; assay type: functional, organism-based; settings: dose 10-60 mg/kg, time 18.0 day
# A2780 = assay: Antiproliferative activity against human A2780 cells assessed as reduction in cell viability incubated for 120 hrs by Cell-titer Glo luminescent assay; assay type: functional, cell-based
# [5] = molecular target: Proto-oncogene tyrosine-protein kinase ROS (Homo sapiens) (UniProt P08922); assay: Inhibition of ROS1 (unknown origin) at 10 uM preincubated for 15 mins and measured after 60 mins by Z-LYTE screening relative to control; settings: time 75.0 min
# U2OS = assay: Antiproliferative activity against human U2OS cells assessed as reduction in cell viability incubated for 120 hrs by Cell-titer Glo luminescent assay; assay type: functional, cell-based
# LoVo [6] = assay: Induction of cell cycle arrest in human LoVo cells assessed as accumulation of cells at G2 phase incubated for 24 hrs by PI staining based flow cytometric analysis; assay type: functional; settings: dose 1-3 µM
# HCT-116 = assay: Antiproliferative activity against human HCT-116 cells assessed as reduction in cell viability incubated for 120 hrs by Cell-titer Glo luminescent assay; assay type: functional, cell-based
# NCI-H69 = assay: Antiproliferative activity against human NCI-H69 cells assessed as reduction in cell viability incubated for 120 hrs by Cell-titer Glo luminescent assay; assay type: functional, cell-based
# Huh-7 = assay: Antiproliferative activity against human Huh-7 cells assessed as reduction in cell viability incubated for 120 hrs by Cell-titer Glo luminescent assay; assay type: functional, cell-based
# A549 = assay: Antiproliferative activity against human A549 cells assessed as reduction in cell viability incubated for 120 hrs by Cell-titer Glo luminescent assay; assay type: functional, cell-based
# MDA-MB-436 = assay: Antiproliferative activity against human MDA-MB-436 cells assessed as reduction in cell viability incubated for 120 hrs by Cell-titer Glo luminescent assay; assay type: functional, cell-based
# CWR22R [7] = assay: Antiproliferative activity against human 22Rv1 cells incubated for 120 hrs by Cell-titer Glo luminescent assay
# JeKo-1 [8] = assay: Antitumor activity against human JeKo-1 cells xenografted in female CB17 SCID mouse at 40 mg/kg BID, po administered as 3 days on and 4 days off schedule for 24 days; assay type: functional, organism-based; settings: time 24.0 day
# HepG2 = assay: Antiproliferative activity against human HepG2 cells assessed as reduction in cell viability incubated for 120 hrs by Cell-titer Glo luminescent assay; assay type: functional, cell-based
# JeKo-1 [9] = assay: Antiproliferative activity against human JeKo-1 cells assessed as reduction in cell viability incubated for 120 hrs by Cell-titer Glo luminescent assay; assay type: functional, cell-based
# KATO III = assay: Antiproliferative activity against human KATO III stomach cancer cell line assessed as reduction in cell viability incubated for 120 hrs by Cell-titer Glo luminescent assay; assay type: functional, cell-based
# LoVo [10] = assay: Inhibition of DNA damage repair in human LoVo cells assessed as decrease in Chk1 expression level incubated for 24 hrs by Western blot analysis; assay type: functional, cell-based; settings: dose 0.3-1 µM
# LoVo [11] = assay: Inhibition of DNA damage repair in human LoVo cells assessed as decrease in MRE11 expression level incubated for 24 hrs by Western blot analysis; assay type: functional, cell-based; settings: dose 0.3-1 µM
# SK-OV-3 = assay: Antiproliferative activity against human SK-OV-3 cells assessed as reduction in cell viability incubated for 120 hrs by Cell-titer Glo luminescent assay; assay type: functional, cell-based
# OVCAR-8 = assay: Antiproliferative activity against human OVCAR-8 cells assessed as reduction in cell viability incubated for 120 hrs by Cell-titer Glo luminescent assay; assay type: functional, cell-based
# LoVo [12] = assay: Inhibition of DNA damage repair in human LoVo cells assessed as upregulation of p-Histone H2A.X protein level at 0.3 to 1 uM incubated for 24 hrs by Western blot analysis; assay type: functional, cell-based; settings: dose 0.3-1 µM
# MDA-MB-231 = assay: Antiproliferative activity against human MDA-MB-231 cells assessed as reduction in cell viability incubated for 120 hrs by Cell-titer Glo luminescent assay; assay type: functional, cell-based
# MDA-MB-453 = assay: Antiproliferative activity against human MDA-MB-453 cells assessed as reduction in cell viability incubated for 120 hrs by Cell-titer Glo luminescent assay; assay type: functional, cell-based
# NCI-H1703 [13] = assay: Antiproliferative activity against human NCI-H1703 cells assessed as reduction in cell viability incubated for 120 hrs by Cell-titer Glo luminescent assay; assay type: functional, cell-based
# LoVo [14] = assay: Inhibition of DNA damage repair in human LoVo cells assessed as decrease in RAD51 expression level incubated for 24 hrs by Western blot analysis; assay type: functional, cell-based; settings: dose 0.3-1 µM
# MCF7 = assay: Antiproliferative activity against human MCF7 cells assessed as reduction in cell viability incubated for 120 hrs by Cell-titer Glo luminescent assay; assay type: functional, cell-based
# T-24 = assay: Antiproliferative activity against human T24 cells assessed as reduction in cell viability incubated for 120 hrs by Cell-titer Glo luminescent assay; assay type: functional, cell-based
# [15] = molecular target: Kappa-type opioid receptor (Homo sapiens) (UniProt P41145); assay: Inhibition of human kappa opioid at 10 uM; settings: time 75.0 min
# LNCaP = assay: Antiproliferative activity against human LNCaP cells assessed as reduction in cell viability incubated for 120 hrs by Cell-titer Glo luminescent assay; assay type: functional, cell-based
# [16] = molecular target: Serine/threonine-protein kinase mTOR (Homo sapiens, UniProt P42345); assay: Inhibition of mTOR (unknown origin) at 10 uM preincubated for 15 mins and measured after 60 mins by Z-LYTE screening relative to control; settings: time 75.0 min
# LoVo [17] = assay: Antiproliferative activity against human LoVo cells assessed as reduction in cell viability incubated for 120 hrs by Cell-titer Glo luminescent assay
# Proto-oncogene tyrosine-protein kinase ROS (Homo sapiens), sequence (P08922 whole entry): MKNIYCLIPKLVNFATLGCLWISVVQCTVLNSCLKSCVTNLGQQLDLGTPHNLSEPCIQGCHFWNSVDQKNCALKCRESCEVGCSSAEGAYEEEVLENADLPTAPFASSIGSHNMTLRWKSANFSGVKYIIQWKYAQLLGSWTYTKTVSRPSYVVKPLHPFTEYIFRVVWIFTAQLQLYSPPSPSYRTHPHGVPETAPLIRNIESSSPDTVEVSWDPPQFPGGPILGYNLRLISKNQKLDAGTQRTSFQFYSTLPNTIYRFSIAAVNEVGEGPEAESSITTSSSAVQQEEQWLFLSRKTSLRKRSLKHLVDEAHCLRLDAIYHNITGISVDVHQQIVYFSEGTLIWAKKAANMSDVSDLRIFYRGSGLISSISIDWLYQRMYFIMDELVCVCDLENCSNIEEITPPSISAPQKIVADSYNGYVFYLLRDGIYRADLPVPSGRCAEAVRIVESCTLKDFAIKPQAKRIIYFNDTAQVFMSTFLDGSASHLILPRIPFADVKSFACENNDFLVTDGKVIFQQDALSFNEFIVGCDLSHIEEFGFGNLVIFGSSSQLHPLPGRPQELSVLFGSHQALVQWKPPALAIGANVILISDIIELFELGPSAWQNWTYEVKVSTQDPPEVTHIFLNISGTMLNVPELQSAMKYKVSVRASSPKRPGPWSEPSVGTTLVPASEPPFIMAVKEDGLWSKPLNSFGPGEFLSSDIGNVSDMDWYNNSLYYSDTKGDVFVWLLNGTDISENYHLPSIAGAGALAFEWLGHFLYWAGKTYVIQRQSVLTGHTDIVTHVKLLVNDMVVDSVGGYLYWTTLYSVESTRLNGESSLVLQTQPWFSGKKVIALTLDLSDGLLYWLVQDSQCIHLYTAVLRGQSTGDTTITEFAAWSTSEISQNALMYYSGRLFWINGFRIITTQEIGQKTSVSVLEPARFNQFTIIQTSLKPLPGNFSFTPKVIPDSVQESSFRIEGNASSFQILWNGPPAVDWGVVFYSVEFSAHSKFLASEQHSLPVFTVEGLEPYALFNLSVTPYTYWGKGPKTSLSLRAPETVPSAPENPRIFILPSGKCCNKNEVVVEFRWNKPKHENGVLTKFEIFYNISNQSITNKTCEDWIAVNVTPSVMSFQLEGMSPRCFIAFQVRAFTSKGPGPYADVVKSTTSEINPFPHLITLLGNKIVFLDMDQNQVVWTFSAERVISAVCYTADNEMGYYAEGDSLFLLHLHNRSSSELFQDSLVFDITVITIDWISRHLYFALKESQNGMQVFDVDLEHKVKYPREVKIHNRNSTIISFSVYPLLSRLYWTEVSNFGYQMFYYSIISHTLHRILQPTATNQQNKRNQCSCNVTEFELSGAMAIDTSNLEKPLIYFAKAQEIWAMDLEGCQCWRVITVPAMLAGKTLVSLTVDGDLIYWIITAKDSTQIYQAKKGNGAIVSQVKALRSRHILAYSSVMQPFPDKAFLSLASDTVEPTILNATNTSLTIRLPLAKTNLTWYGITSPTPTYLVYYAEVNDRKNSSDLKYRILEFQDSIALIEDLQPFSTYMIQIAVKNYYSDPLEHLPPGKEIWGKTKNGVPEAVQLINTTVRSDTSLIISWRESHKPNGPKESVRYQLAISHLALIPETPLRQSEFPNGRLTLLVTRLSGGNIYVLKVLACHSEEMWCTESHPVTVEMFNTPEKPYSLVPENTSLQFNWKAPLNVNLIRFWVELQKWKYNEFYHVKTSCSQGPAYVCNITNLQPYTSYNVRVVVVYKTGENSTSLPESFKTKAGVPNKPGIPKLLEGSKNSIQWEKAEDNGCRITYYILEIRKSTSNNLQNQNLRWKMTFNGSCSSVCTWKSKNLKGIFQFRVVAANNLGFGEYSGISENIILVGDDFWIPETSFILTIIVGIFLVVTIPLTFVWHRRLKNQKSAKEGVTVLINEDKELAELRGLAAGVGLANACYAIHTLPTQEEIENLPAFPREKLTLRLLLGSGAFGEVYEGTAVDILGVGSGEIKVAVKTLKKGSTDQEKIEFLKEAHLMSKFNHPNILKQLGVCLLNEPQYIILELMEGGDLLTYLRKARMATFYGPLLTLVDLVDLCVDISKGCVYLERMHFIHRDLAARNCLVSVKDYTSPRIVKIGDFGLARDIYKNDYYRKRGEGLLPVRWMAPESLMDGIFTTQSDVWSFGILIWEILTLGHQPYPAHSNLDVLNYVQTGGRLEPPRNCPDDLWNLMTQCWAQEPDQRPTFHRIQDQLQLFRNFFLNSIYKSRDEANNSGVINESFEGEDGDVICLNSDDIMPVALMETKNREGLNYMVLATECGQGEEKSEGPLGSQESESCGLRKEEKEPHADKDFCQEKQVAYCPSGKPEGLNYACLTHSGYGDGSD
# Phosphatidylinositol 4-phosphate 3-kinase C2 domain-containing subunit beta (Homo sapiens), sequence (O00750 whole entry, the tested form may be a part): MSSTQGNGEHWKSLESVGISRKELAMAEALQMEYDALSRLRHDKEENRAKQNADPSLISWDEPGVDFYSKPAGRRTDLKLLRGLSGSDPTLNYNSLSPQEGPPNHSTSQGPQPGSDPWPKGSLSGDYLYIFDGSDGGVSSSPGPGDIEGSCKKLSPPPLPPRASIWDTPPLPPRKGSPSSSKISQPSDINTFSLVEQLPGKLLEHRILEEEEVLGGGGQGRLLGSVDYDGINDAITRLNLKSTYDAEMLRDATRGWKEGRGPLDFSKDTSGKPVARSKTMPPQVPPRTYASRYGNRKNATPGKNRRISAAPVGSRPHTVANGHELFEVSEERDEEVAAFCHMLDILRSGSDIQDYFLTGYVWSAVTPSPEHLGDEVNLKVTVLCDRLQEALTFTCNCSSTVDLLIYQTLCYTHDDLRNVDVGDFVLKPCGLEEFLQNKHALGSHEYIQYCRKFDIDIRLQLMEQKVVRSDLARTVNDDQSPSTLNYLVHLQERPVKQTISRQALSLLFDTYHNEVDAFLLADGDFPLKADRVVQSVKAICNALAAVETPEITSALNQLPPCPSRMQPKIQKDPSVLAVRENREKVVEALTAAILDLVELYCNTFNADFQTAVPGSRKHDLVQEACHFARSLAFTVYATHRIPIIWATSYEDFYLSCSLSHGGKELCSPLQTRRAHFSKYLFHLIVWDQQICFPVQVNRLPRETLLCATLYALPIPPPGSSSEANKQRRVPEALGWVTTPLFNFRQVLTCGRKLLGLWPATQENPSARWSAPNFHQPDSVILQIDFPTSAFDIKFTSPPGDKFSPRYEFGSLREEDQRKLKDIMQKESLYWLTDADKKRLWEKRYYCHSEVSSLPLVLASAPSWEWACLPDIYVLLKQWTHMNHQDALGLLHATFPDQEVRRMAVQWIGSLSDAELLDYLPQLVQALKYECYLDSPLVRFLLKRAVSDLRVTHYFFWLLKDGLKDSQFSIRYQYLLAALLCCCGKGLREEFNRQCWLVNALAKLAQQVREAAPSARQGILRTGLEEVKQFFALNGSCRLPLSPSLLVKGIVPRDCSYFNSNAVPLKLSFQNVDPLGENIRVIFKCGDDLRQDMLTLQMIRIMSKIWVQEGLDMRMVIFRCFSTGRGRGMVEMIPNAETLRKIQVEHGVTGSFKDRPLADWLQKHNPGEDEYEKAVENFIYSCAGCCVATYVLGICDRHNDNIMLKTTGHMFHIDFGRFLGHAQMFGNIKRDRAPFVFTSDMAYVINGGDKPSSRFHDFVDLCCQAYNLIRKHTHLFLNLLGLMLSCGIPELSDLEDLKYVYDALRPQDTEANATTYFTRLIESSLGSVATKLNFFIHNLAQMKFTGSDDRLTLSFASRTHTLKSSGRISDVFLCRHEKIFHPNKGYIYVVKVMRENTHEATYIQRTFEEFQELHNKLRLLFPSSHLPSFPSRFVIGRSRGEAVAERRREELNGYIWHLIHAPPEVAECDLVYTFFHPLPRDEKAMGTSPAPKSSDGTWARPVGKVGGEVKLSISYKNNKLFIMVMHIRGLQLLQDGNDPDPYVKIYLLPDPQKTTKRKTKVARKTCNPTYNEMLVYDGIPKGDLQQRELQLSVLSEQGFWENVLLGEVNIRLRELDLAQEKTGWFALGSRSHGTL
# Kappa-type opioid receptor (Homo sapiens), sequence (P41145 whole entry): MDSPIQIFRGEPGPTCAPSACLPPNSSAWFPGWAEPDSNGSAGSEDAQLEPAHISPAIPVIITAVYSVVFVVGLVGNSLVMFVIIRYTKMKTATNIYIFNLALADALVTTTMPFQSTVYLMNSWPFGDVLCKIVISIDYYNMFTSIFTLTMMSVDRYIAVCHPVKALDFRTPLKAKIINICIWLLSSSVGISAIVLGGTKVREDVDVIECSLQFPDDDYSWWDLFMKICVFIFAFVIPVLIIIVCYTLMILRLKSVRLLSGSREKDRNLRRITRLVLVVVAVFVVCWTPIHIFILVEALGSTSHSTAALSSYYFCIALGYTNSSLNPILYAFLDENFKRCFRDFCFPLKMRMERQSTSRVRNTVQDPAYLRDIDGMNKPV
smiles,measurement,setting,value
Cc1nn(-c2cncc(C(F)(F)F)c2)c(C)c1-c1cc(N2CC3CCC(C2)O3)nc2c(-c3ccn[nH]3)cnn12,IC50,CWR22R [1],2.82 µM
Cc1nn(-c2cncc(F)c2)c(C)c1-c1cc(N2CC3CCC(C2)O3)nc2c(-c3ccn[nH]3)cnn12,IC50,CWR22R [1],1.33 µM
Cc1nn(C2CCNCC2)c(C)c1-c1cc(N2CC3CCC(C2)O3)nc2c(-c3ccn[nH]3)cnn12,IC50,CWR22R [1],4.33 µM
Cc1n[nH]c(C)c1-c1cc(N2CC3CCC(C2)O3)nc2c(-c3ccn[nH]3)cnn12,IC50,CWR22R [1],0.614 µM
Cc1n[nH]c(C)c1-c1cc(N2CC3CCC(C2)O3)n2ncc(-c3cn[nH]c3)c2n1,IC50,CWR22R [1],1.73 µM
Cc1nn(-c2cccnc2)c(C)c1-c1cc(N2C[C@@H]3C[C@H]2CO3)nc2c(-c3ccn[nH]3)cnn12,IC50,CWR22R [1],4.08 µM
Cc1nn(-c2cncc(C(F)F)c2)c(C)c1-c1cc(N2CC3CCC(C2)O3)nc2c(-c3ccn[nH]3)cnn12,IC50,CWR22R [1],0.972 µM
Cc1nn(-c2ccc(N)nc2)c(C)c1-c1cc(N2CC3CCC(C2)O3)nc2c(-c3ccn[nH]3)cnn12,IC50,CWR22R [1],0.199 µM
Nc1ccn([C@@H]2O[C@H](CO)[C@@H](O)C2(F)F)c(=O)n1 [GEMCITABINE],inhibition in vivo at 50 mg/kg,NCI-H1703 [2],76.7%
Cc1n[nH]c(C)c1-c1cc(C23CCC(CNC2)O3)nc2c(-c3cccs3)cnn12 (configuration not stated),IC50,CWR22R [1],0.988 µM
Cc1nn(-c2cccnc2)c(C)c1-c1cc(N2CC3CCC(C2)O3)nc2c(-c3ccn[nH]3)cnn12 [listing 1 of 2 here],inhibition,Homo sapiens,> 80%
same,inhibition,[3],> 80%
same,TGI,CWR22R [4],Active
same,Activity,A2780,Active
same,inhibition,[5],> 80%
same,Activity,U2OS,Active
same,Activity,LoVo [6],Dose-dependent-effect
same,Activity,HCT-116,Active
same,Activity,NCI-H69,Active
same,Activity,Huh-7,Active
same,Activity,A549,Active
same,Activity,MDA-MB-436,Active
same,Activity,CWR22R [7],Active
same,Activity,JeKo-1 [8],Active
same,Activity,HepG2,Active
same,Activity,JeKo-1 [9],Active
same,Activity,KATO III,Active
same,inhibition,LoVo [10],Dose-dependent-effect
same,inhibition,LoVo [11],Dose-dependent-effect
same,Activity,SK-OV-3,Active
same,Activity,OVCAR-8,Active
same,inhibition,LoVo [12],Active
same,Activity,MDA-MB-231,Active
same,Activity,MDA-MB-453,Active
same,Activity,NCI-H1703 [13],Active
same,inhibition,LoVo [14],Dose-dependent-effect
same,Activity,MCF7,Active
same,Activity,T-24,Active
same,inhibition,[15],Active
same,Activity,LNCaP,Active
same,inhibition,[16],> 80%
Cc1nn(-c2cncnc2)c(C)c1-c1cc(N2CC3CCC(C2)O3)nc2c(-c3ccn[nH]3)cnn12,IC50,CWR22R [1],1.41 µM
CCOc1cncc(-n2nc(C)c(-c3cc(N4CC5CCC(C4)O5)nc4c(-c5ccn[nH]5)cnn34)c2C)c1,IC50,CWR22R [1],0.515 µM
Cc1n[nH]c(C)c1-c1nc(N2CCOC[C@H]2C)c2nc(-c3cccc4[nH]ccc34)ccc2n1,IC50,LoVo [17],0.246 µM
Cc1nn(-c2cccnc2)c(C)c1-c1cc(N2CC3CCC(C2)O3)nc2c(-c3ccn[nH]3)cnn12 [listing 2 of 2 here],IC50,CWR22R [1],0.216 µM
Cc1nn(-c2cccnc2)c(C)c1-c1cc(N2C3CCC2COC3)nc2c(-c3ccn[nH]3)cnn12,IC50,CWR22R [1],0.332 µM
Cc1nn(-c2cncc(Br)c2)c(C)c1-c1cc(N2CC3CCC(C2)O3)nc2c(-c3ccn[nH]3)cnn12,IC50,CWR22R [1],0.437 µM
